Laboratory results published in the NIST ThermoML archive (doi:10.1016/j.jct.2007.04.005).

Assay: xn = mol fraction of the nth substance listed
Settings: 318.15 K, Liquid

CCCCCCCCC [nonane] + C1CCCCC1
Settings	mass density [kg/m3]
100 kPa, x2 = 0	698.2
100 kPa, x2 = 0.09303	701
100 kPa, x2 = 0.2009	704.8
100 kPa, x2 = 0.3051	708.8
100 kPa, x2 = 0.417	713.5
100 kPa, x2 = 0.512	718
100 kPa, x2 = 0.5996	722.8
100 kPa, x2 = 0.7052	729.3
100 kPa, x2 = 0.7993	736.2
100 kPa, x2 = 0.9039	744.9
101 kPa, x2 = 0	698.48
101 kPa, x2 = 0.1022	701.67
101 kPa, x2 = 0.1548	703.43
101 kPa, x2 = 0.2009	705.04
101 kPa, x2 = 0.2591	707.2
101 kPa, x2 = 0.3306	710.05
101 kPa, x2 = 0.4003	713.04
101 kPa, x2 = 0.4596	715.79
101 kPa, x2 = 0.5321	719.42
101 kPa, x2 = 0.612	723.86
101 kPa, x2 = 0.6649	727.05
101 kPa, x2 = 0.7224	730.84
101 kPa, x2 = 0.8047	736.83
101 kPa, x2 = 0.8686	742.07
101 kPa, x2 = 0.9405	748.72
2130 kPa, x2 = 0	699.9
2130 kPa, x2 = 0.09303	702.7
2130 kPa, x2 = 0.2009	706.5
2130 kPa, x2 = 0.3051	710.6
2130 kPa, x2 = 0.417	715.2
2130 kPa, x2 = 0.512	719.8
2130 kPa, x2 = 0.5996	724.6
2130 kPa, x2 = 0.7052	731.1
2130 kPa, x2 = 0.7993	738
2130 kPa, x2 = 0.9039	746.7
4150 kPa, x2 = 0	701.8
4150 kPa, x2 = 0.09303	704.7
4150 kPa, x2 = 0.2009	708.4
4150 kPa, x2 = 0.3051	712.5
4150 kPa, x2 = 0.417	717.2
4150 kPa, x2 = 0.512	721.7
4150 kPa, x2 = 0.5996	726.6
4150 kPa, x2 = 0.7052	733.1
4150 kPa, x2 = 0.7993	740
4150 kPa, x2 = 0.9039	748.7
6180 kPa, x2 = 0	703.6
6180 kPa, x2 = 0.09303	706.4
6180 kPa, x2 = 0.2009	710.2
6180 kPa, x2 = 0.3051	714.3
6180 kPa, x2 = 0.417	719
6180 kPa, x2 = 0.512	723.6
6180 kPa, x2 = 0.5996	728.4
6180 kPa, x2 = 0.7052	734.9
6180 kPa, x2 = 0.7993	741.8
6180 kPa, x2 = 0.9039	750.6
8210 kPa, x2 = 0	705.3
8210 kPa, x2 = 0.09303	708.2
8210 kPa, x2 = 0.2009	712
8210 kPa, x2 = 0.3051	716.1
8210 kPa, x2 = 0.417	720.7
8210 kPa, x2 = 0.512	725.3
8210 kPa, x2 = 0.5996	730.2
8210 kPa, x2 = 0.7052	736.7
8210 kPa, x2 = 0.7993	743.6
8210 kPa, x2 = 0.9039	752.4
10230 kPa, x2 = 0	707
10230 kPa, x2 = 0.09303	709.9
10230 kPa, x2 = 0.2009	713.7
10230 kPa, x2 = 0.3051	717.8
10230 kPa, x2 = 0.417	722.5
10230 kPa, x2 = 0.512	727
10230 kPa, x2 = 0.5996	731.9
10230 kPa, x2 = 0.7052	738.5
10230 kPa, x2 = 0.7993	745.4
10230 kPa, x2 = 0.9039	754.2
11250 kPa, x2 = 0	707.8
11250 kPa, x2 = 0.09303	710.7
11250 kPa, x2 = 0.2009	714.5
11250 kPa, x2 = 0.3051	718.6
11250 kPa, x2 = 0.417	723.3
11250 kPa, x2 = 0.512	727.9
11250 kPa, x2 = 0.5996	732.8
11250 kPa, x2 = 0.7052	739.4
11250 kPa, x2 = 0.7993	746.3
11250 kPa, x2 = 0.9039	755.1
12260 kPa, x2 = 0	708.6
12260 kPa, x2 = 0.09303	711.6
12260 kPa, x2 = 0.2009	715.4
12260 kPa, x2 = 0.3051	719.5
12260 kPa, x2 = 0.417	724.2
12260 kPa, x2 = 0.512	728.8
12260 kPa, x2 = 0.5996	733.7
12260 kPa, x2 = 0.7052	740.3
12260 kPa, x2 = 0.7993	747.1
12260 kPa, x2 = 0.9039	756
14290 kPa, x2 = 0	710.3
14290 kPa, x2 = 0.09303	713.2
14290 kPa, x2 = 0.2009	717
14290 kPa, x2 = 0.3051	721.1
14290 kPa, x2 = 0.417	725.8
14290 kPa, x2 = 0.512	730.4
14290 kPa, x2 = 0.5996	735.3
14290 kPa, x2 = 0.7052	741.9
14290 kPa, x2 = 0.7993	748.9
14290 kPa, x2 = 0.9039	757.7
16310 kPa, x2 = 0	711.9
16310 kPa, x2 = 0.09303	714.8
16310 kPa, x2 = 0.2009	718.7
16310 kPa, x2 = 0.3051	722.7
16310 kPa, x2 = 0.417	727.5
16310 kPa, x2 = 0.512	732
16310 kPa, x2 = 0.5996	737
16310 kPa, x2 = 0.7052	743.6
16310 kPa, x2 = 0.7993	750.5
16310 kPa, x2 = 0.9039	759.4
18340 kPa, x2 = 0	713.5
18340 kPa, x2 = 0.09303	716.4
18340 kPa, x2 = 0.2009	720.2
18340 kPa, x2 = 0.3051	724.3
18340 kPa, x2 = 0.417	729.1
18340 kPa, x2 = 0.512	733.6
18340 kPa, x2 = 0.5996	738.6
18340 kPa, x2 = 0.7052	745.3
18340 kPa, x2 = 0.7993	752.1
18340 kPa, x2 = 0.9039	761.1
20370 kPa, x2 = 0	715
20370 kPa, x2 = 0.09303	717.9
20370 kPa, x2 = 0.2009	721.8
20370 kPa, x2 = 0.3051	725.9
20370 kPa, x2 = 0.417	730.6
20370 kPa, x2 = 0.512	735.2
20370 kPa, x2 = 0.5996	740.2
20370 kPa, x2 = 0.7052	746.9
20370 kPa, x2 = 0.7993	753.7
20370 kPa, x2 = 0.9039	762.7
22390 kPa, x2 = 0	716.5
22390 kPa, x2 = 0.09303	719.4
22390 kPa, x2 = 0.2009	723.3
22390 kPa, x2 = 0.3051	727.4
22390 kPa, x2 = 0.417	732.2
22390 kPa, x2 = 0.512	736.7
22390 kPa, x2 = 0.5996	741.8
22390 kPa, x2 = 0.7052	748.4
22390 kPa, x2 = 0.7993	755.3
22390 kPa, x2 = 0.9039	764.3
24420 kPa, x2 = 0	717.9
24420 kPa, x2 = 0.09303	720.8
24420 kPa, x2 = 0.2009	724.8
24420 kPa, x2 = 0.3051	728.8
24420 kPa, x2 = 0.417	733.6
24420 kPa, x2 = 0.512	738.2
24420 kPa, x2 = 0.5996	743.3
24420 kPa, x2 = 0.7052	749.9
24420 kPa, x2 = 0.7993	756.8
24420 kPa, x2 = 0.9039	765.8
26450 kPa, x2 = 0	719.4
26450 kPa, x2 = 0.09303	722.3
26450 kPa, x2 = 0.2009	726.2
26450 kPa, x2 = 0.3051	730.3
26450 kPa, x2 = 0.417	735.1
26450 kPa, x2 = 0.512	739.7
26450 kPa, x2 = 0.5996	744.8
26450 kPa, x2 = 0.7052	751.4
26450 kPa, x2 = 0.7993	758.3
26450 kPa, x2 = 0.9039	767.4
28470 kPa, x2 = 0	720.8
28470 kPa, x2 = 0.09303	723.6
28470 kPa, x2 = 0.2009	727.6
28470 kPa, x2 = 0.3051	731.7
28470 kPa, x2 = 0.417	736.5
28470 kPa, x2 = 0.512	741.1
28470 kPa, x2 = 0.5996	746.2
28470 kPa, x2 = 0.7052	752.9
28470 kPa, x2 = 0.7993	759.8
28470 kPa, x2 = 0.9039	768.9
29490 kPa, x2 = 0	721.4
29490 kPa, x2 = 0.09303	724.3
29490 kPa, x2 = 0.2009	728.3
29490 kPa, x2 = 0.3051	732.4
29490 kPa, x2 = 0.417	737.2
29490 kPa, x2 = 0.512	741.8
29490 kPa, x2 = 0.5996	746.9
29490 kPa, x2 = 0.7052	753.6
29490 kPa, x2 = 0.7993	760.5
29490 kPa, x2 = 0.9039	769.6
30500 kPa, x2 = 0	722.1
30500 kPa, x2 = 0.09303	725
30500 kPa, x2 = 0.2009	729
30500 kPa, x2 = 0.3051	733.1
30500 kPa, x2 = 0.417	737.9
30500 kPa, x2 = 0.512	742.5
30500 kPa, x2 = 0.5996	747.6
30500 kPa, x2 = 0.7052	754.3
30500 kPa, x2 = 0.7993	761.2
30500 kPa, x2 = 0.9039	770.3
32530 kPa, x2 = 0	723.4
32530 kPa, x2 = 0.09303	726.4
32530 kPa, x2 = 0.2009	730.4
32530 kPa, x2 = 0.3051	734.4
32530 kPa, x2 = 0.417	739.3
32530 kPa, x2 = 0.512	743.8
32530 kPa, x2 = 0.5996	749
32530 kPa, x2 = 0.7052	755.7
32530 kPa, x2 = 0.7993	762.6
32530 kPa, x2 = 0.9039	771.7
34550 kPa, x2 = 0	724.8
34550 kPa, x2 = 0.09303	727.7
34550 kPa, x2 = 0.2009	731.8
34550 kPa, x2 = 0.3051	735.8
34550 kPa, x2 = 0.417	740.6
34550 kPa, x2 = 0.512	745.2
34550 kPa, x2 = 0.5996	750.4
34550 kPa, x2 = 0.7052	757.1
34550 kPa, x2 = 0.7993	764
34550 kPa, x2 = 0.9039	773.2
36580 kPa, x2 = 0	726.1
36580 kPa, x2 = 0.09303	729
36580 kPa, x2 = 0.2009	733.1
36580 kPa, x2 = 0.3051	737.1
36580 kPa, x2 = 0.417	742
36580 kPa, x2 = 0.512	746.6
36580 kPa, x2 = 0.5996	751.7
36580 kPa, x2 = 0.7052	758.5
36580 kPa, x2 = 0.7993	765.4
36580 kPa, x2 = 0.9039	774.5
38600 kPa, x2 = 0	727.5
38600 kPa, x2 = 0.09303	730.4
38600 kPa, x2 = 0.2009	734.5
38600 kPa, x2 = 0.3051	738.5
38600 kPa, x2 = 0.417	743.3
38600 kPa, x2 = 0.512	748
38600 kPa, x2 = 0.5996	753.1
38600 kPa, x2 = 0.7052	759.9
38600 kPa, x2 = 0.7993	766.8
38600 kPa, x2 = 0.9039	776
39620 kPa, x2 = 0	728.1
39620 kPa, x2 = 0.09303	731
39620 kPa, x2 = 0.2009	735.1
39620 kPa, x2 = 0.3051	739.1
39620 kPa, x2 = 0.417	744
39620 kPa, x2 = 0.512	748.6
39620 kPa, x2 = 0.5996	753.8
39620 kPa, x2 = 0.7052	760.6
39620 kPa, x2 = 0.7993	767.5
39620 kPa, x2 = 0.9039	776.7
